From US5296491A, “Pyrazolo[4,3-c]pyridines and their use as serotonin reuptake inhibitors” (Hoechst-Roussel Pharmaceuticals Inc., priority 1993, dated 1994) come the findings set out here.

Structures can show the parent of a compound that is named as a salt.

In the experiment the test system is serotonin (5-hydroxytryptamine (5HT)) uptake. The experiment in a line: [^3 H]-Serotonin Uptake in Rat Whole Brain and Hypothalamic Synaptosomes. Format: biochemical, rat (male Wistar). The following applies: [^3 H]-5HT 50 nM, 5 minutes, 37° C., log probit analysis. As to the method:
[^3 H]-Serotonin Uptake in Rat Whole Brain and Hypothalamic Synaptosomes
This activity is determined in an assay which measures [^3 H]-serotoninuptake in rat whole brain and hypothalamic synaptosomes. The assay described below is used as a biochemical screen for potential antidepressants which block serotonin (5-hydroxytryptamine (5HT)) uptake.
Male CR Wistar rats (100-125 g)
1. Krebs-Henseleit Bicarbonate Buffer, pH 7.4 (KHBB):
Prepare a 1 liter batch containing the following salts.
Prior to use add to 200 ml, per assay:
The batch is aerated for 60 minutes with 95% 02 /5% CO2, the pH is checked to insure it is at 7.4±0.1, then add bovine serum albumin (Sigma cat# A-7906) 1 mg/ml.
Make a 4 liter batch, containing the following salts:
3. Sucrose solution: 0.32M sucrose containing 5 mM HEPES and 0.1 mM EDTA; pH to 7.3 using Tris base.
4. A 0.1 mM stock solution of serotonin creatinine SO4 is made up in 0.01N HCl. This is used to dilute the specific activity of the radiolabeled 5HT.
5. 5-[1,2-^3 H(N)]-Hydroxytryptamine creatinine sulfate (serotonin), specific activity 20-30 Ci/mmol, is used.
The final desired concentration of [^3 H]-5HT in the assay is 50 nM. The dilution factor is 0.8. The KHBB is made up to contain 62.5 nM of [^3 H]-5HT.
6. For most assays, a 0.5 mM stock solution of the test compound is made up initially in either 10 μl of glacial acetic acid, 100 μl DMSO or 10 μl of the recrystallization solvent, to which is added approximately 10 ml of distilled water. Compounds are initially screened in duplicate at 3 concentrations (10^-8, 10^-7 and 10^-6 M) made up in water.
The Percoll method for preparing synaptosomes has been modified from Nagy, A., Delgado-Escueta, A. V. J. Neurochem. 43, 1114 (1984) and Dunkley, P. R., Jarvie, R. E., Heath, J. W., Kidd, G. J., Rostas, J. A. P. Brain Research 372, 115 (1986). Male Wistar rats are decapitated and the brain rapidly removed. Whole brain (minus cerebellum) is weighed and homogenized in 15 volumes of ice cold Sucrose solution using a Potter-Elvejhem homogenizer. The following procedures are performed on ice. Homogenization should be done with 4-5 up and down strokes at medium speeds (setting 4.5 to 5) to minimize synaptosome lysis. The homogenate is centrifuged at 1000 g (3000 rpm, Sorvall SS-34 rotor) for 10 minutes at 0°-4° C. The supernatant is removed and approximately 10 ml per tube is carefully layered onto a discontinuous Percoll (Sigma cat# P-1644) gradient: 21% Percoll in Sucrose solution at the bottom (15 ml per tube) and 10% Percoll in the middle ( 10 ml; colored with a few drops of phenol red for visibility).
The Percoll gradient tubes are carefully placed into a Beckman SW-28 swinging bucket rotor and spun in a Beckman XL90 ultracentrifuge using the following program: speed, 11,000 rpm (15,000 g) for 30 minutes at 4° C.; slow acceleration and deceleration (acceleration setting 9; deceleration setting 3). Tubes are carefully removed, and the top layer and the top part of the middle (red) layer are discarded using a pasteur pipette. The synaptosomes are located in the white fluffy band at the interface between the 10% and 21% Percoll layers. This is carefully removed, placed in a centriguge tube, diluted with KHBB and spun at 21,000 g (13,000 rpm, Sorvall SS-34 rotor). The pellet (synaptosomes) is resuspended in KHBB (10 vol per gram original brain wet weight; 1 brain minus cerebellum weighs approximately 1.2 g; 2.5 brains are needed per typical assay).
200 μl of the tissue suspension are added to each of 24 tubes (at a time) containing the 20 μl of vehicle or drug on ice. Three minutes later, 800 μl of KHBB containing [^3 H]-5HT are added, and the tubes are vortexed. The rack containing the 24 tubes is moved from the ice bath to a water bath set at 37° C. The tubes are incubated for 5 minutes under 95% O2 /5% CO2.
By IC50 is commonly meant the point on the concentration scale where inhibition reaches its midpoint. On to `NCCn1nc(-c2ccc(C(F)(F)F)cc2)c2cnccc21` [Example 2Q, 1-(2-aminoethyl)-3-(4-trifluoromethylphenyl)-1H-pyrazolo[4,3-c]pyridine maleate], for which half-maximal inhibition (IC50) required 1240 nM.

Consider `NCCCn1nc(-c2cccc(Cl)c2Cl)c2cnccc21` [Example 2DD, 1-(3-aminopropyl)-3-(2,3-dichlorophenyl)-1H-pyrazolo[4,3-c]pyridine fumarate], for which the IC50 is 410 nM.

Regarding `Cc1ccccc1-c1nn(CCN)c2ccncc12` [1-(2-aminoethyl)-3-(2-methylphenyl)-1H-pyrazolo[4,3-c]pyridine], it took 870 nM to reach half-maximal inhibition (IC50).

`NCCn1nc(-c2ccc(Br)cc2)c2cnccc21` [Example 2H, 1-(2-aminoethyl)-3-(4-bromophenyl)-1H-pyrazolo[4,3-c]pyridine] gave an IC50 of 940 nM.

Consider `NCCn1nc(-c2ccc(Cl)cc2Cl)c2cnccc21` [Example 2S, 1-(2-amimoethyl)-3-(2,4-dichlorophenyl)-1H-pyrazolo[4,3-c]pyridine fumarate], for which half-maximal inhibition (IC50) was put at 58 nM.

`NCCn1nc(-c2cccc(Cl)c2Cl)c2cnccc21` [Example 2CC, 1-(2-aminoethyl)-3-(2,3-dichlorophenyl)-1H-pyrazolo[4,3-c]pyridine fumarate] came in with an IC50 of 210 nM.

Consider `NCCCn1nc(-c2ccc(Cl)cc2)c2cnccc21` [Example 2D, 1-[3-aminopropyl]-3-(4-chlorophenyl)-1H-pyrazolo[4,3-c]pyridine dimaleate], for which the midpoint of inhibition, the IC50, lay at 770 nM.

Compound `NCCn1nc(-c2ccc(Cl)c(Cl)c2)c2cnccc21` [Example 2L, 1-(2-aminoethyl)-3-(3,4-dichlorophenyl)-1H-pyrazolo[4,3-c]pyridine maleate] displayed an IC50 of 210 nM.

The compound `NCCCn1nc(-c2ccc(Cl)c(Cl)c2Cl)c2cnccc21` [Example 2FF, 1-(3-aminopropyl)-3-(2,3,4-trichlorophenyl)-1H-pyrazolo[4,3-c]pyridine fumarate] showed an IC50 of 23 nM.

Take `NCCn1nc(-c2ccc(Cl)c(Cl)c2Cl)c2cnccc21` [Example 2EE, 1-(2-aminoethyl)-3-(2,3,4-trichlorophenyl)-1H-pyrazolo[4,3-c]pyridine fumarate]: it took 49 nM to reach half-maximal inhibition (IC50).

`NCCn1nc(-c2ccccc2Br)c2cnccc21` [Example 2A, 1-(2-aminoethyl)-3-(2-bromophenyl)-1H-pyrazolo[4,3-c]pyridine dihydrochloride] came in with a half-maximal inhibitory concentration (IC50) of 1530 nM. This IC50 is about 31-fold higher than that of the compound before.

In turn, `NCCCCn1nc(-c2ccc(Cl)cc2Cl)c2cnccc21` [1-(4-aminobutyl)-3-(2,4-dichlorophenyl)-1H-pyrazolo[4,3-c]pyridine dimaleate] came in with an IC50 of 95 nM.

Regarding `NCCCn1nc(-c2ccc(Cl)c(Cl)c2)c2cnccc21` [Example 2K, 1-(3-aminopropyl)-3-3,4-dichlorophenyl)-1H-pyrazolo[4,3-c]pyridine maleate], the IC50 worked out at 240 nM.
